Assay: Color development of photochromic cured product (color density, maximum absorption wavelength), xenon lamp 120 seconds
Assay type: physicochemical
Method: To 100 parts by weight of a polymerizable monomer consisting of 45 parts by weight of 4G, 45 parts by weight of 3PG, 9 parts by weight of GMA and 1 part by weight of MSD were added 0.05 part by weight of fulgimide compound I-(1) and 1 part by weight of Perbutyl ND as a polymerization catalyst. The solution was stirred thoroughly until the content thereof was completely dissolved. The solution was poured into a mold constituted by a glass plate and a gasket composed of an ethylene-vinyl acetate copolymer. The mold was placed in an air oven and the solution therein was subjected to polymerization at 35 to 90° C. for 20 hours. After the completion of the polymerization, the obtained photochromic cured product was removed from the glass plate of the mold.
The obtained photochromic cured product having a thickness of 2 mm was exposed to the light emitted from a xenon lamp, model L-2480 (300 W) SHL-100, manufactured by Hamamatsu Photonics, through Aero Mass Filter (a product of Corning Co.), at 20±1° C. for 120 seconds at a beam intensity (on the polymer surface of 365 nm=2.4 mW/cm^2 and 254 nm=24 μW/cm^2, whereby the cured product was allowed to develop a color. A value [ε (120 seconds)-ε (0 seconds)] was calculated and taken as the "color density" of the developed color. In the above expression, ε (120 seconds) is an absorbance at maximum absorption wavelength after 120 seconds of irradiation, and ε (0 seconds) is an absorbance at maximum absorption wavelength under no irradiation. […]
The procedure of Example 15 was repeated except that the composition of the polymerizable monomer was changed as shown in Table 2. […]

[1] = maximum absorption wavelength, monomers 3PG:45,4G:45,GMA:9,MSD:1
[2] = monomers 3PG:45,4G:45,GMA:9,MSD:1, 0.05 part fulgimide, 2 mm, 20±1° C., 120 seconds irradiation
[3] = Ex. 29, monomers 4G:65,3G:15,GMA:9,MS:8,HEMA:2,MSD:1
[4] = Ex. 30, monomers BR-MA:20,BzMA:25,3PG:37,GMA:9,MS:8,MSD:1
[5] = Ex. 31, monomers BPE-100N:45,3G:37,GMA:9,MS:8,MSD:1

Row | SMILES | max [1] [nm] | Color density [2] [Abs] | further results
1 | CC1=C2C(=O)N(c3ccccc3)C(=O)C2C2(c3sc(-c4ccccc4)cc31)C1CC3CC(C1)CC2C3 (stereo not drawn) [Fulgimide compound A] | 555 | 0.51 | –
2 | N#Cc1cccc(N2C(=O)C3=C(C4CC4)c4ccsc4C4(C5CC6CC(C5)CC4C6)C3C2=O)c1 (stereo not drawn) [I-(3), N-(3'-cyanophenyl)-4-cyclopropyl-6,7-dihydrospirobenzothiophenecarboxyimide-7,2'-tricyclo[3.3.1.13,7]decane] | 560 | 1.42 | –
3 | CC1=C2C(=O)N(c3cccc(C(F)(F)F)c3)C(=O)C2C2(c3sc(-c4ccccc4)cc31)C1CC3CC(C1)CC2C3 (stereo not drawn) [I-(4), 6,7-dihydro-4-methyl-2-phenyl-N-(3'-trifluoromethylphenyl)spirobenzothiophenecarboxyimide-7,2'-tricyclo[3.3.1.13,7]decane] | 566 | 1.22 | –
4 | CC1=C2C(=O)N(c3cccc([N+](=O)[O-])c3)C(=O)C2C2(c3sccc31)C1CC3CC(C1)CC2C3 (stereo not drawn) [I-(5), 6,7-dihydro-4-methyl-N-(3'-nitrophenyl)spirobenzothiophenecarboxyimide-7,2'-tricyclo[3.3.1.13,7]decane] | 572 | 1.36 | –
5 | CC(=O)c1cccc(N2C(=O)C3=C(C)c4cc(C)oc4C4(C5CCC4CC5)C3C2=O)c1 (stereo not drawn) [I-(6)] | 525 | 1.06 | –
6 | CC1=C2C(=O)N(c3cccc(S(C)(=O)=O)c3)C(=O)C2C2(c3occc31)C1CCCC2CCC1 (stereo not drawn) [I-(7)] | 530 | 1.20 | –
7 | CC1=C2C(=O)N(c3cc(C#N)cc(C#N)c3)C(=O)C2C2(c3sc(-c4ccccc4)cc31)C1CC3CC(C1)CC2C3 (stereo not drawn) [I-(8), N-(3',5'-dicyanophenyl)-6,7-dihydro-4-methyl-2-phenylspirobenzothiophenecarboxyimide-7,2'-tricyclo[3.3.1.13,7]decane] | 582 | 1.58 | –
8 | CC1=C2C(=O)N(c3cccc(F)c3)C(=O)C2C2(c3sc(C)cc31)C1CC3CC(C1)CC2C3 (stereo not drawn) [I-(9)] | 574 | 1.43 | –
9 | COC(=O)c1cccc(N2C(=O)C3=C(C)c4ccsc4C4(C5CC6CC(C5)CC4C6)C3C2=O)c1 (stereo not drawn) [I-(10)] | 550 | 1.14 | –
10 | CC1=C2C(=O)N(c3cccc(C(=O)c4ccccc4)c3)C(=O)C2C2(c3sccc31)C1CC3CC(C1)CC2C3 (stereo not drawn) [I-(11)] | 563 | 1.18 | –
11 | CC1=C2C(=O)N(c3cccc(S(=O)O)c3)C(=O)C2C2(c3sccc31)C1CC3CC(C1)CC2C3 (stereo not drawn) [I-(12)] | 567 | 1.22 | –
12 | CC1=C2C(=O)N(c3cccc(S(=O)(=O)c4ccccc4)c3)C(=O)C2C2(c3sccc31)C1CC3CC(C1)CC2C3 (stereo not drawn) [I-(13)] | 564 | 1.25 | –
13 | CC1=C2C(=O)N(c3cccc(C(=O)Oc4ccccc4)c3)C(=O)C2C2(c3sccc31)C1CC3CC(C1)CC2C3 (stereo not drawn) [I-(14)] | 562 | 1.12 | –

Now from value to compound, other results behind:

Row | max [1] [nm] | Color density [2] [Abs] | SMILES | further results
14 | 570 | 0.64 | CC1=C2C(=O)N(c3ccccc3C#N)C(=O)C2C2(c3sc(-c4ccccc4)cc31)C1CC3CC(C1)CC2C3 (stereo not drawn) [Fulgimide compound B, reference compound] | –
15 | 570 | 0.63 | CC1=C2C(=O)N(c3ccc(C#N)cc3)C(=O)C2C2(c3sc(-c4ccccc4)cc31)C1CC3CC(C1)CC2C3 (stereo not drawn) [Fulgimide compound C, reference compound] | –
16 | 568 | 0.72 | CC1=C2C(=O)N(CC#N)C(=O)C2C2(c3sc(-c4ccccc4)cc31)C1CC3CC(C1)CC2C3 (stereo not drawn) [Fulgimide compound D, reference compound] | –
17 | 620 | 0.74 | CC1=C2C(=O)N(C#N)C(=O)C2C2(c3sc(-c4ccccc4)cc31)C1CC3CC(C1)CC2C3 (stereo not drawn) [Fulgimide compound E, reference compound] | –
18 | 578 | 0.78 | COc1ccc(-c2cc3c(s2)C2(C4CC5CC(C4)CC2C5)C2C(=O)N(CC#N)C(=O)C2=C3C)cc1 (stereo not drawn) [Fulgimide compound F, reference compound] | –
19 | 582 | 1.33 | COc1ccc(-c2cc3c(s2)C2(C4CC5CC(C4)CC2C5)C2C(=O)N(c4cccc(C#N)c4)C(=O)C2=C3C)cc1 (stereo not drawn) [I-(1), N-(3'-cyanophenyl)-6,7-dihydro-4-methyl-2-(4'-methoxyphenyl)spirobenzothiophenecarboxyimide-7,2'-tricyclo[3.3.1.13,7]decane] | Color density [3]: 1.28 Abs; max [3]: 584 nm; Color density [4]: 1.29 Abs; max [4]: 590 nm; Color density [5]: 1.11 Abs; max [5]: 590 nm; Color density (Ex. 32, monomer 4G:100): 1.41 Abs; max (Ex. 32, monomer 4G:100): 584 nm
20 | 570 | 1.25 | CC1=C2C(=O)N(c3cccc(C#N)c3)C(=O)C2C2(c3sc(-c4ccccc4)cc31)C1CC3CC(C1)CC2C3 (stereo not drawn) [I-(2), N-(3'-cyanophenyl)-6,7-dihydro-4-methyl-2-phenylspirobenzothiophenecarboxyimide-7,2'-tricyclo[3.3.1.13,7]decane] | –
